According to US20090270398A1, “Compounds, Compositions and Methods Comprising Pyridazine Derivatives” (Institute for OneWorld Health, priority 2008, published 2009):
pIC50: −log10 of the molar value.

System: cholera toxin (CTX)-induced net fluid secretion in intestinal loops
Test: not given
Format: in vivo, mice (CD1 strain)
Conditions: 4 hours

In order of falling “closed loop % inhibition @ 100 μg” value:
1. CCN(Cc1ccccc1)c1ccc(-c2cc(Cl)c(O)c(Cl)c2)nn1 [Compound 115, 4-(6-(benzyl(ethyl)amino)pyridazin-3-yl)-2,6-dichlorophenol]  79.4%
2. OCCN(Cc1ccccc1)c1ccc(-c2cc(Cl)c(O)c(Cl)c2)nn1 [Compound 98, 4-(6-(benzyl(2-hydroxyethyl)amino)pyridazin-3-yl)-2,6-dichlorophenol]  67.0%

Target: T1, CFTR (Homo sapiens, UniProt P13569)
T1 construct: results in the phosphorylation and opening of CFTR anion channels
T1 sequence (P13569 whole entry): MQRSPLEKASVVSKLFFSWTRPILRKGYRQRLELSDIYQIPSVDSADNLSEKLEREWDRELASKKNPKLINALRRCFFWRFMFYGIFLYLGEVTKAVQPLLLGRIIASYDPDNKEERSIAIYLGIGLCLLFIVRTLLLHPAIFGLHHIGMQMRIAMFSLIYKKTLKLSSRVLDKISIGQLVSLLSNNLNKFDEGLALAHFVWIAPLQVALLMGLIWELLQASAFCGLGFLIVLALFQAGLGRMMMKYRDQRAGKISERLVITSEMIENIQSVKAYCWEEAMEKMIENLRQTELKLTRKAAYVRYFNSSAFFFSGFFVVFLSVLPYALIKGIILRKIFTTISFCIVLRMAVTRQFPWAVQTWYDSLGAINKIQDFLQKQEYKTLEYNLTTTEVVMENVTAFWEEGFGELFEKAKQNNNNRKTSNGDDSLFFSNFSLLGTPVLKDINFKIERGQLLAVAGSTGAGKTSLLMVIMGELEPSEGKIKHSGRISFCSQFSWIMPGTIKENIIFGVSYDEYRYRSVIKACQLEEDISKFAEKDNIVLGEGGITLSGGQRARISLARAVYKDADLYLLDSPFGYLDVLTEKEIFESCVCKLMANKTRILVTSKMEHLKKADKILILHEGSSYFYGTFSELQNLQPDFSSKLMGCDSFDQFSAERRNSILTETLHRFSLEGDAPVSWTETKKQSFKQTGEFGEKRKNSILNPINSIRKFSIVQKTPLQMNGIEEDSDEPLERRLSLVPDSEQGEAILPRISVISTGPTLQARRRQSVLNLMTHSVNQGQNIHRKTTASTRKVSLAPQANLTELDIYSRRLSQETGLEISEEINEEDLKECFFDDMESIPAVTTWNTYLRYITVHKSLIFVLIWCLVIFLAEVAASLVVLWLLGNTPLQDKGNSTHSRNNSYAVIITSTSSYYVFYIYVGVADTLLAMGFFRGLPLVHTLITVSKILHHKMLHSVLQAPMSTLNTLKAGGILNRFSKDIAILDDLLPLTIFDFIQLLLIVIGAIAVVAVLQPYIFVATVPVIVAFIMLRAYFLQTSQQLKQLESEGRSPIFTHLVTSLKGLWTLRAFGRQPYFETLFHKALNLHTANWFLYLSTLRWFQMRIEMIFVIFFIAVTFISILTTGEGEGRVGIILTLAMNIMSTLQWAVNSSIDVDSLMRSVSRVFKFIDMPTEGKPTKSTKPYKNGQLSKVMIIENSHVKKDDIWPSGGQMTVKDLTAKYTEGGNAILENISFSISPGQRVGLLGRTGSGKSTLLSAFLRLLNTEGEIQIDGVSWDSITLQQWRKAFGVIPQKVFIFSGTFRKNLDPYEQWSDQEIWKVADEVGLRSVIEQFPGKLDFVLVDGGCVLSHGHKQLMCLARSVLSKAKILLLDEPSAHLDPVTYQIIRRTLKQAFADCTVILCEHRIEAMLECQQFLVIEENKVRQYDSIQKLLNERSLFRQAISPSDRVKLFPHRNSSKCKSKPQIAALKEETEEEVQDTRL
Test: T84 assay (FLIPR membrane potential, forskolin/IBMX-stimulated CFTR channel activity)
Format: cell-based
Conditions: average of at least 2 runs unless annotated n = 1
Description: (§1) For example, Human colonic T84 cells can be acquired from the European Collection of Cell Cultures (ECACC) and grown in standard culture conditions as described by the supplier. On the day before assay 25,000 T84 cells per well are plated into standard black walled, clear bottom 384-well assay plates in standard growth medium consisting of DMEM:F12 with 10% FBS and incubated overnight. On the day of the assay the plates are washed using a standard assay buffer (HBSS with 10 mM Hepes) and incubated for 15 minutes in serum free cell culture medium before the addition of a commercially available membrane potential sensitive fluorescent dye (FLIPR Red membrane potential dye, Molecular Devices Corporation). T84 cells are incubated with the FLIPR Red membrane potential dye for 45 minutes in the presence and absence of test compound before being transferred to a commercially available fluorescence imaging plate reader (FLIPR384, Molecular Devices Corporation). Fluorescence levels are monitored continuously every second for 150 seconds; after an initial 10 second baseline, CFTR channel activity is stimulated through the addition of 10 μM forskolin in the presence of 100 μM of the phosphodiesterase inhibitor iso-butyl-methylxanthine (IBMX). Addition of the forskolin leads to the activation of intracellular adenylyl cylase 1, elevating cAMP levels and results in the phosphorylation and opening of CFTR anion channels. CFTR channel opening causes chloride ion efflux and subsequent depolarization of the cells, which is measured by an increase in fluorescence. CFTR inhibitor compounds prevent cell depolarization and the associated increase in fluorescence.
as §1, with “Human colonic” for “For example, Human colonic”, “T84 cells are acquired from” for “T84 cells can be acquired from”, “(ECACC) and are grown in” for “(ECACC) and grown in”
Unless otherwise indicated, the IC50 values are reported as an average of at least 2 runs. Where only 1 run is used, this is indicated by the annotation “n=1.”

In order of rising pIC50:
1. Oc1c(Br)cc(-c2ccc(OCc3cccc(Br)c3)nn2)cc1Br [Compound 91, 2,6-dibromo-4-(6-(3-bromobenzyloxy)pyridazin-3-yl)phenol]  4.58
2. Oc1c(Cl)cc(-c2ccc(N3CCC(Cc4ccccc4)CC3)nn2)cc1Cl [Compound 136, 4-(6-(4-benzylpiperidin-1-yl)pyridazin-3-yl)-2,6-dichlorophenol]  4.60
3. Oc1c(Cl)cc(-c2ccc(OCc3cnc(Br)s3)nn2)cc1Cl [Compound 105, 4-(6-((2-bromothiazol-5-yl)methoxy)pyridazin-3-yl)-2,6-dichlorophenol]  4.68
4. Oc1c(Cl)cc(-c2ccc(OCc3ccsc3)nn2)cc1Cl [Compound 106, 2,6-dichloro-4-(6-(thiophen-3-ylmethoxy)pyridazin-3-yl)phenol]  4.71
5. Oc1c(Cl)cc(-c2ccc(N3CCN(c4cccc(F)c4)CC3)nn2)cc1Cl [Compound 135, 2,6-dichloro-4-(6-(4-(3-fluorophenyl)piperazin-1-yl)pyridazin-3-yl)phenol]  4.71
6. OCCN(Cc1ccccn1)c1ccc(-c2cc(Cl)c(O)c(Cl)c2)nn1 [Compound 113, 2,6-dichloro-4-(6-((2-hydroxyethyl)(pyridin-2-ylmethyl)amino)pyridazin-3-yl)phenol]  4.75
7. Oc1c(Br)cc(-c2ccc(OCc3cccc(Cl)c3Cl)nn2)cc1Br [Compound 99, 2,6-dibromo-4-(6-(2,3-dichlorobenzyloxy)pyridazin-3-yl)phenol]  4.90
8. Oc1c(Br)cc(-c2ccc(OCc3cccc4ccccc34)nn2)cc1Br [Compound 95, 2,6-dibromo-4-(6-(naphthalen-1-ylmethoxy)pyridazin-3-yl)phenol]  5.10
9. COc1ccc(CN(CCO)c2ccc(-c3cc(Cl)c(O)c(Cl)c3)nn2)cc1OC [Compound 134, 2,6-dichloro-4-(6-((3,4-dimethoxybenzyl)(2-hydroxyethyl)amino)pyridazin-3-yl)phenol]  5.16
10. Oc1c(Cl)cc(-c2ccc(OCCc3cccs3)nn2)cc1Cl [Compound 102, 2,6-dichloro-4-(6-(2-(thiophen-2-yl)ethoxy)pyridazin-3-yl)phenol]  5.16
11. Oc1c(Br)cc(-c2ccc(OCc3ccc(F)cc3Cl)nn2)cc1Br [Compound 89, 2,6-dibromo-4-(6-(2-chloro-4-fluorobenzyloxy)pyridazin-3-yl)phenol]  5.22
12. Oc1c(Cl)cc(-c2ccc(NCc3ccc(Cl)c(Cl)c3)nn2)cc1Cl [Compound 137, 2,6-dichloro-4-(6-(3,4-dichlorobenzylamino)pyridazin-3-yl)phenol]  5.22
13. Oc1c(Cl)cc(-c2ccc(OCCc3ccccc3)nn2)cc1Cl [Compound 103, 2,6-dichloro-4-(6-phenethoxypyridazin-3-yl)phenol]  5.24
14. Oc1c(Br)cc(-c2ccc(OCCc3ccc(Br)cc3)nn2)cc1Br [Compound 93, 2,6-dibromo-4-(6-(4-bromophenethoxy)pyridazin-3-yl)phenol]  5.38
15. Oc1c(Cl)cc(-c2ccc(OCc3ccc(F)cc3Cl)nn2)cc1Cl [Compound 96, 2,6-dichloro-4-(6-(2-chloro-4-fluorobenzyloxy)pyridazin-3-yl)phenol]  5.43
16. Oc1c(Br)cc(-c2ccc(OCCc3ccc(Cl)cc3)nn2)cc1Br [Compound 92, 2,6-dibromo-4-(6-(4-chlorophenethoxy)pyridazin-3-yl)phenol]  5.47
17. Oc1c(Cl)cc(-c2ccc(OCc3ccccc3)nn2)cc1Cl [Compound 119, 4-(6-(benzyloxy)pyridazin-3-yl)-2,6-dichlorophenol]  5.56
18. OCCN(Cc1cccc(OCc2ccccc2Cl)c1)c1ccc(-c2cc(Cl)c(O)c(Cl)c2)nn1 [Compound 130, 2,6-dichloro-4-(6-((3-(2-chlorobenzyloxy)benzyl)(2-hydroxyethyl)amino)pyridazin-3-yl)phenol]  5.64
19. CN(Cc1cccc(Oc2ccccn2)c1)c1ccc(-c2cc(Cl)c(O)c(Cl)c2)nn1 [Compound 120, 2,6-dichloro-4-(6-(methyl(3-(pyridin-2-yloxy)benzyl)amino)pyridazin-3-yl)phenol]  5.77
20. CN(Cc1cccnc1)c1ccc(-c2cc(Cl)c(O)c(Cl)c2)nn1 [Compound 124, 2,6-dichloro-4-(6-(methyl(pyridin-3-ylmethyl)amino)pyridazin-3-yl)phenol]  5.78
21. CCN(Cc1ccc(OC)c(F)c1)c1ccc(-c2cc(Cl)c(O)c(Cl)c2)nn1 [Compound 131, 2,6-dichloro-4-(6-(ethyl(3-fluoro-4-methoxybenzyl)amino)pyridazin-3-yl)phenol]  5.84
22. OCCN(Cc1cccc(Cl)c1Cl)c1ccc(-c2cc(Cl)c(O)c(Cl)c2)nn1 [Compound 123, 2,6-dichloro-4-(6-((2,3-dichlorobenzyl)(2-hydroxyethyl)amino)pyridazin-3-yl)phenol]  5.85
23. Oc1c(Cl)cc(-c2ccc(NCc3cc(F)ccc3F)nn2)cc1Cl [Compound 117, 2,6-dichloro-4-(6-(2,5-difluorobenzylamino)pyridazin-3-yl)phenol]  5.87
24. CCOc1ccc(CN(CC)c2ccc(-c3cc(Cl)c(O)c(Cl)c3)nn2)cc1OC [Compound 129, 2,6-dichloro-4-(6-((4-ethoxy-3-methoxybenzyl)(ethyl)amino)pyridazin-3-yl)phenol]  5.94
25. Oc1c(Cl)cc(-c2ccc(OCC3(c4ccccc4)CCN(Cc4ccc(Cl)nc4)CC3)nn2)cc1Cl [Compound 108, 2,6-dichloro-4-(6-((1-((6-chloropyridin-3-yl)methyl)-4-phenylpiperidin-4-yl)methoxy)pyridazin-3-yl)phenol]  6.20
26. OCCN(Cc1ccccc1)c1ccc(-c2cc(Cl)c(O)c(Cl)c2)nn1 [Compound 98, 4-(6-(benzyl(2-hydroxyethyl)amino)pyridazin-3-yl)-2,6-dichlorophenol]  6.20
27. CCN(Cc1ccc(OCc2ccccc2)cc1)c1ccc(-c2cc(Cl)c(O)c(Cl)c2)nn1 [Compound 128, 4-(6-((4-(benzyloxy)benzyl)(ethyl)amino)pyridazin-3-yl)-2,6-dichlorophenol]  6.43
28. Oc1c(Cl)cc(-c2ccc(N3CCc4ccccc4C3)nn2)cc1Cl [Compound 122, 2,6-dichloro-4-(6-(3,4-dihydroisoquinolin-2(1H)-yl)pyridazin-3-yl)phenol]  6.82
29. COCCN(Cc1ccccc1)c1ccc(-c2cc(Cl)c(O)c(Cl)c2)nn1 [Compound 114, 4-(6-(benzyl(2-methoxyethyl)amino)pyridazin-3-yl)-2,6-dichlorophenol]  6.89
30. CN(Cc1ccccc1)c1ccc(-c2cc(Cl)c(O)c(Cl)c2)nn1 [Compound 118, 4-(6-(benzyl(methyl)amino)pyridazin-3-yl)-2,6-dichlorophenol]  7.22
31. CCN(Cc1cccc(F)c1)c1ccc(-c2cc(Cl)c(O)c(Cl)c2)nn1 [Compound 127, 2,6-dichloro-4-(6-(ethyl(3-fluorobenzyl)amino)pyridazin-3-yl)phenol]  7.52
32. CCN(Cc1ccccc1)c1ccc(-c2cc(Cl)c(O)c(Cl)c2)nn1 [Compound 115, 4-(6-(benzyl(ethyl)amino)pyridazin-3-yl)-2,6-dichlorophenol]  8.00
